Laboratory results: the supplement of paper PMC10307832

Columns and labels:
Assay in all cases: relative viability (nuclei count vs DMSO), 5 days (fraction); higher = more cells survive
[1] = compound: CC1=CC(=NN1)NC2=CC(=NC(=N2)/C=C/C3=CC=CC=C3)N4CCN(CC4)C + Cc1nc(NC(=O)N2CCC[C@H]2C(N)=O)sc1-c1ccnc(C(C)(C)C(F)(F)F)c1 [Alpelisib] (partner 2 µM)
How it was run: (§1)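 Five library-drug doses in √10 steps were combined with a fixed anchor-drug dose, or a single drug was given alone, by pin tool to lung cancer cell lines in 1536-well plates the day after seeding. Nuclei were stained and counted after 5 days. Relative viability is the nuclei count in treated wells over that in vehicle wells, taken as the median of duplicate plates.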

Obatoclax + Pictilisib = compound: COC1=CC(c2cc3ccccc3[nH]2)=N/C1=C\c1[nH]c(C)cc1C [Obatoclax] + CS(=O)(=O)N1CCN(Cc2cc3nc(-c4cccc5[nH]ncc45)nc(N4CCOCC4)c3s2)CC1 [Pictilisib] (partner 1 µM)
How it was run: as §1

Obatoclax + Vorinostat = compound: COC1=CC(c2cc3ccccc3[nH]2)=N/C1=C\c1[nH]c(C)cc1C [Obatoclax] + O=C(CCCCCCC(=O)Nc1ccccc1)NO [Vorinostat] (partner 1 µM)
How it was run: as §1

Obatoclax + OSI-027 = compound: COC1=CC(c2cc3ccccc3[nH]2)=N/C1=C\c1[nH]c(C)cc1C [Obatoclax] + COc1cccc2cc(-c3nc([C@H]4CC[C@H](C(=O)O)CC4)n4ncnc(N)c34)[nH]c12 [OSI-027] (partner 0.5 µM)
How it was run: as §1

| Cell Line | relative viability ([1]; first compound 0.08 µM) | relative viability ([1]; first compound 0.253 µM) | relative viability ([1]; first compound 0.8 µM) | relative viability ([1]; first compound 2.53 µM) | relative viability ([1]; first compound 8 µM) | relative viability (Obatoclax + Pictilisib; first compound 0.01 µM) | relative viability (Obatoclax + Pictilisib; first compound 0.03162 µM) | relative viability (Obatoclax + Pictilisib; first compound 0.1 µM) | relative viability (Obatoclax + Pictilisib; first compound 0.3162 µM) | relative viability (Obatoclax + Pictilisib; first compound 1 µM) | relative viability (Obatoclax + Vorinostat; first compound 0.01 µM) | relative viability (Obatoclax + Vorinostat; first compound 0.03162 µM) | relative viability (Obatoclax + Vorinostat; first compound 0.1 µM) | relative viability (Obatoclax + Vorinostat; first compound 0.3162 µM) | relative viability (Obatoclax + Vorinostat; first compound 1 µM) | relative viability (Obatoclax + OSI-027; first compound 0.01 µM) | relative viability (Obatoclax + OSI-027; first compound 0.03162 µM) | relative viability (Obatoclax + OSI-027; first compound 0.1 µM) | relative viability (Obatoclax + OSI-027; first compound 0.3162 µM) | relative viability (Obatoclax + OSI-027; first compound 1 µM) |
| --- | --- | --- | --- | --- | --- | --- | --- | --- | --- | --- | --- | --- | --- | --- | --- | --- | --- | --- | --- | --- |
| NCI-H1666 | 0.999 | 1.07 | 0.817 | 0.501 | 0.183 | 0.398 | 0.531 | 0.479 | 0.188 | 0.196 | 1.03 | 1.08 | 1.11 | 0.998 | 0.754 | 0.881 | 0.89 | 0.95 | 0.443 | 0.5 |
| NCI-H1734 | 0.601 | 0.695 | 0.692 | 0.375 | 0.189 | 0.466 | 0.457 |  | 0.361 | 0.229 | 0.819 | 0.887 | 0.814 | 0.741 | 0.31 | 0.648 | 0.612 | 0.569 | 0.465 | 0.254 |
| NCI-H1755 | 0.9 | 1.07 | 0.887 | 0.456 | 0.155 | 0.475 | 0.383 | 0.386 | 0.357 | 0.269 | 0.698 | 0.765 | 0.767 | 0.753 | 0.728 | 0.768 | 0.709 | 0.667 | 0.742 | 0.763 |
| NCI-H1793 | 0.679 | 0.758 | 0.654 | 0.398 | 0.124 | 0.288 | 0.306 | 0.388 | 0.297 | 0.296 | 0.725 | 0.71 | 0.714 | 0.711 | 0.722 | 0.293 | 0.286 | 0.248 | 0.275 | 0.298 |
| NCI-H1915 | 1.07 | 1.07 | 0.977 | 0.806 | 0.324 | 0.967 | 0.823 | 0.968 | 0.989 | 0.933 | 0.543 | 0.426 | 0.501 | 0.481 | 0.538 | 0.613 | 0.585 | 0.584 | 0.604 | 0.546 |
| NCI-H1944 | 0.816 | 0.995 | 0.759 | 0.568 | 0.304 | 0.34 | 0.332 | 0.337 | 0.295 | 0.336 | 0.519 | 0.484 | 0.57 | 0.561 | 0.527 | 0.457 | 0.383 | 0.381 | 0.415 | 0.448 |
| NCI-H1975 | 0.59 | 0.655 | 0.42 | 0.141 | 0.109 | 0.299 | 0.313 | 0.258 | 0.292 | 0.199 | 0.674 | 0.775 | 0.73 | 0.735 | 0.788 | 0.801 | 0.665 |  | 0.511 | 0.177 |
| NCI-H1993 | 0.63 |  | 0.581 | 0.61 | 0.493 | 0.804 | 0.833 | 0.842 | 1.02 | 0.733 | 0.907 | 0.847 | 0.857 | 1.08 | 0.812 | 0.501 | 0.551 | 0.623 | 0.526 | 0.528 |
| NCI-H2009 | 1.09 | 1.19 | 1.16 | 1.13 | 0.241 | 0.927 | 0.936 | 0.706 | 0.281 | 0.228 | 0.723 | 0.73 | 0.634 | 0.502 | 0.251 | 0.582 | 0.608 | 0.535 | 0.229 | 0.247 |
| NCI-H2023 | 0.482 | 0.645 | 0.626 | 0.417 | 0.0558 | 0.29 | 0.22 | 0.265 | 0.151 | 0.0879 | 0.489 | 0.613 | 0.632 | 0.553 | 0.376 | 0.42 | 0.381 | 0.488 | 0.226 | 0.102 |
| NCI-H2085 | 0.874 | 0.952 | 1.07 | 0.741 | 0.301 | 0.446 | 0.433 | 0.483 | 0.338 | 0.242 | 0.748 | 0.776 | 0.669 | 0.787 | 0.342 | 0.818 | 0.917 | 0.587 | 0.506 | 0.359 |
| NCI-H2087 | 1.11 | 1.04 | 1.07 | 0.965 | 0.135 | 0.908 | 0.925 | 0.825 | 0.334 | 0.206 | 0.61 | 0.81 | 0.931 | 0.671 | 0.723 | 0.768 | 0.525 | 0.529 | 0.333 | 0.159 |
| NCI-H2126 | 0.776 | 0.802 | 0.76 | 0.674 | 0.377 | 0.524 | 0.464 | 0.554 | 0.481 | 0.482 | 0.748 | 0.688 | 0.993 | 0.807 | 0.792 | 0.766 | 0.546 | 0.878 | 0.651 | 0.736 |
| NCI-H2170 | 0.765 | 0.861 | 0.668 | 0.494 | 0.147 | 0.369 | 0.278 | 0.316 | 0.334 | 0.295 | 0.698 | 0.88 | 0.742 | 0.799 | 0.782 | 0.684 | 0.73 | 0.647 | 0.769 | 0.754 |
| NCI-H2228 | 0.632 | 0.714 | 0.437 | 0.112 | 0.0706 | 0.278 | 0.419 | 0.384 | 0.294 | 0.174 | 0.564 | 0.83 | 0.859 | 0.654 | 0.164 | 0.653 | 0.507 | 0.524 | 0.318 | 0.152 |
| NCI-H2347 | 1.06 | 1.15 | 1.07 | 0.915 | 0.517 | 0.904 | 0.648 | 0.695 | 0.489 | 0.831 | 0.633 | 0.71 | 0.514 | 0.54 | 0.465 | 0.461 | 0.408 |  | 0.467 | 0.412 |
